Measurements taken from patent US20230271928A1, “NAPHTHYLUREA COMPOUND, METHODS OF PREPARATION AND USE THEREOF” (Henan Radiomedical Science and Technology Co., Ltd., priority 2021, published 2023).
Like-named read-outs stand apart in the source and are kept apart here.

What was measured:
Format in all cases: cell-based
[1] = tested on: SMMC-7721 cells; assay: MTT proliferation assay, SMMC-7721; conditions: Homo sapiens; SMMC-7721, MTT, 48 h
Protocol: (§1) Difference cell lines HepG2, SMMC-7721, HuH-7, MCF-7, MDA-MB-231, MDA-MB-468, PC9, PC9-AR, PC9-GR, Jurkat and Molt-13 were harvested during log phase; the number of the cells in an original cell suspension was counted; the original cell suspension was diluted to a density of 5×10^4 cells/mL; for a 96-well plate, 100 uL of the cell suspension was transferred to each well; DMSO is used as solvent for negative control; (2E)-3-(6-bromo-2-pyridyl)-2-cyano-N-[(1S)-1-phenylethyl]-2-acrylamide (WP1066CAS: 857064-38-1, with a formula
(§2) or gefitinib was used as a positive control; the naphthylurea compound ID1120B-1 and the phosphate ID1120B-P thereof were diluted with DMSO and added into the 96-well plate to achieve a final concentration of 0.1, 0.3, 1, 3, 10, 30, 100 and 300 μmol/L in each well; the 96-well plate was incubated for 48 h; 10 μL of MTT solvent (5 mg/mL) was added into each well; the 96-well plate was incubated at 37° C. for 4 h; a culture supernatant was discarded; 150 μL of DMSO was added into each well; the 96-well plate was shaken for 10 min on a plate shaker; an optical density (OD) of the resulting product was measured at a wavelength of 490 nm by an ELISA reader. Test results were recorded. A cell growth curve was drawn with the dosage of each compound as abscissa and the absorbance value as ordinate. The half maximum inhibition rates (IC50 value) of the cancer cells were shown in Table 1, FIGS. 1A-1J and FIGS. 2A-2J.

[2] = tested on: MDA-MB-468 cells; assay: MTT proliferation assay, MDA-MB-468; conditions: Homo sapiens, MDA-MB-468, MTT
Protocol: (§3) Test results were recorded. A cell growth curve was drawn with the dosage of each compound as abscissa and the absorbance value as ordinate.

[3] = tested on: HepG2 cells; assay: MTT proliferation assay, HepG2; conditions: Homo sapiens
Protocol: as §1, §2

[4] = tested on: MCF-7 cells; assay: MTT proliferation assay, MCF-7; conditions: Homo sapiens
Protocol: as §3

[5] = tested on: HepG2 cells; assay: Cell cycle analysis by PI flow cytometry; conditions: HepG2, 48 h
Protocol: HepG2 cells were harvested during log phase, digested, centrifuged and prepared into a single cell suspension; the number of the cells in the single cell suspension was counted; the cells were seeded into a 12-well plate, with 2×10^5 cells per well; three wells were used as a parallel control design; 16 hours after seeding, the cells were treated with the compounds in a concentration gradient for 48 h; the cells were digested with trypsin and resuspended; the number of the cells in the cell suspension was counted and diluted to 5×10^5 cells/mL; after the digestion was completed, the cell suspension was centrifuged; the supernatant was discarded; the pellet was washed twice with PBS (each time the mixture was centrifuged 2000 rpm for 5 min); the supernatant was discarded; a fixative comprising 980 μL of 70% cold ethanol and 20 μL of 5% BSA (a small amount of BSA reduces cellular stress and damage) was added to each microcentrifuge tube, so that the cells were fixed overnight at 4° C.; the fixative is discarded; the cells were washed three times in PBS to remove residual fixative (each time the mixture was centrifuged at 1000 rpm for 3 min); a DNA quantification kit is used to measure the content of DNA according to the following instruction (Suo Laibao, Beijing): each sample was incubated in 100 μL of RNase A at 37° C. for 30 min; 500 μL of PI (propidium iodide) was added to each sample; each sample was incubated at room temperature for 30 min in the dark; the cell cycle was analyzed by a flow cytometry and a ModFit software; and Graphpad prism 6.0 was used to estimate the percentage of a cell population in the different phases of the cell cycle.

[6] = tested on: MDA-MB-231 cells; assay: MTT proliferation assay, MDA-MB-231; conditions: Homo sapiens; MDA-MB-231, MTT, 48 h
Protocol: as §3

[7] = tested on: HuH-7 cells; assay: MTT proliferation assay, HuH-7; conditions: Homo sapiens; HuH-7, MTT, 48 h
Protocol: as §1, §2

[8] = compared with negative control (DMSO)
[9] = MCF7, MCF-7, MTT, 48 h, read-out: IC50

IC50 ([2]; MDA-MB-468, 48 h) | IC50 ([3]; HepG2, 48 h) | Compound | other results
33.9 µM | 72.6 µM | O=C(Nc1ccc(OCc2ccc(OCCN3CCCCC3)cc2)c2ccccc12)NC1CCCC1 [ID1217B-1] | 
 | 93.8 µM | COc1ccc(NC(=O)Nc2ccc(OCc3ccc(OCCN4CCCCC4)cc3)c3ccccc23)cc1OC [ID1224C-1] | 
47.5 µM | 50.3 µM | O=C(Nc1ccc(OC(F)(F)F)c(Cl)c1)Nc1ccc(OCc2ccc(OCCN3CCCCC3)cc2)c2ccccc12 [ID1229C-1] | 
6.13 µM |  | COc1ccc(NC(=O)Nc2ccc(OCc3ccc(OCCN4CCCCC4)c(Cl)c3)c3ccccc23)cc1 [ID210110C-1] | 
 | 4.65 µM | O=C(NCc1ccc(F)c(Cl)c1)Nc1ccc(OCc2ccc(OCCN3CCCCC3)cc2)c2ccccc12 [ID210115B-1] | IC50 [4, 9]: 39 µM
 | 37 µM | O=C(NCc1ccc(OC(F)(F)F)cc1)Nc1ccc(OCc2ccc(OCCN3CCCCC3)cc2)c2ccccc12 [ID210118D-1] | IC50 [7]: 26.5 µM
26.6 µM | 26.5 µM | O=C(Nc1ncccc1Cl)Nc1ccc(OCc2ccc(OCCN3CCCCC3)cc2)c2ccccc12 [ID210119B-1] | 
 | 6.43 µM | O=C(Nc1ccc(Cl)c(F)c1)Nc1ccc(OCc2ccc(OCCN3CCCCC3)cc2)c2ccccc12 [IY1229C-1] | 
20.4 µM | 68.2 µM | O=C(Nc1ccc(Cl)cc1F)Nc1ccc(OCc2ccc(OCCN3CCCCC3)cc2)c2ccccc12 [IY210103B-1] | 
51.4 µM | 43.8 µM | O=C(Nc1ccc(F)c(Cl)c1)Nc1ccc(OCc2ccc(OCCN3CCCCC3)cc2)c2ccccc12 [IY210105B-1] | 
 | 5.77 µM | O=C(NCc1cc(F)cc(F)c1)Nc1ccc(OCc2ccc(OCCN3CCCCC3)cc2)c2ccccc12 [IY210115B-1] | IC50 [1]: 40.1 µM
 | 3.5 µM | O=C(NCc1ccc(F)cc1)Nc1ccc(OCc2ccc(OCCN3CCCCC3)cc2)c2ccccc12 [IY210119B-1] | IC50 [1]: 0.736 µM
11.6 µM | 11 µM | O=C(Nc1ccncc1)Nc1ccc(OCc2ccc(OCCN3CCCCC3)cc2)c2ccccc12 [IY210122C-1] | 
62.5 µM |  | O=C(Nc1ccc(-c2ccccc2)cc1)Nc1ccc(OCc2ccc(OCCN3CCCCC3)cc2)c2ccccc12 [IY210128B-1] | 

Second part, the compound before the results:

Compound | IC50 ([2]; MDA-MB-468, 48 h) | IC50 ([3]; HepG2, 48 h) | other results
O=C(NCc1ccccc1)Nc1ccc(OCc2ccc(OCCN3CCCCC3)c(Cl)c2)c2ccccc12 [ID1120C-1] |  |  | IC50 [1]: 6.75 µM
N#Cc1cc(OCCN2CCCCC2)ccc1COc1ccc(NC(=O)NCc2ccccc2)c2ccccc12 [ID1120D-1] |  |  | IC50 [1]: 6.89 µM
O=C(Nc1ccc(OCc2ccc(OCCN3CCCCC3)cc2)c2ccccc12)NC1CCCCC1 [ID1207B-1] |  |  | IC50 ([2]; 48 h): 267 µM; IC50 ([3]; 48 h): 462 µM
O=C(NCCc1ccccc1)Nc1ccc(OCc2ccc(OCCN3CCCCC3)cc2)c2ccccc12 [ID1210B-1] |  |  | IC50 ([4]; MCF7, 48 h): 8.08 µM
O=C(Nc1ccc(Cl)c(Cl)c1)Nc1ccc(OCc2ccc(OCCN3CCCCC3)cc2)c2ccccc12 [ID1214B-1] | 688 µM | 0.88 µM | induction of cells in the G2/M phase [5, 8]: dramatically induce the liver cancer cells in the G2/M phase in a dose-dependent manner; percentage of cells in the G1/S phase [5, 8]: significantly decrease the percentage of the liver cancer cells in the G1/S phase; length of the G2 phase, % of the cell cycle, after treatment ([5]; value reached after treatment (increase from DMSO control value)): 17.54%; IC50 [4, 9]: 88.4 µM; IC50 [6]: 114 µM; IC50 [1]: 8.73 µM
O=C(Nc1ccc(OCc2ccc(OCCN3CCCCC3)cc2Cl)c2ccccc12)NC1CCCCC1 [ID1215C-1] |  |  | IC50 ([2]; 48 h): 3.47 µM
O=C(Nc1ccc(F)c(F)c1)Nc1ccc(OCc2ccc(OCCN3CCCCC3)cc2)c2ccccc12 [ID210105C-1] |  | 66.9 µM | 
O=C(NCc1cccc(Cl)c1)Nc1ccc(OCc2ccc(OCCN3CCCCC3)cc2)c2ccccc12 [ID210106D-1] |  | 5.25 µM | IC50 [7]: 6.83 µM
COc1ccc(CNC(=O)Nc2ccc(OCc3ccc(OCCN4CCCCC4)cc3)c3ccccc23)cc1 [ID210113C-1] |  | 1.31 µM | IC50 [7]: 4.75 µM
O=C(NCc1ccc(Cl)c(C(F)(F)F)c1)Nc1ccc(OCc2ccc(OCCN3CCCCC3)cc2)c2ccccc12 [ID210114B-1] |  | 3.97 µM | IC50 [4, 9]: 13.2 µM
O=C(Nc1ccc(OCc2ccc(OCCN3CCCCC3)cc2)c2ccccc12)NC1CCOCC1 [ID210127B-1] | 0.736 µM | 3.5 µM | 
S=C(NCc1ccccc1)Nc1ccc(OCc2ccc(OCCN3CCCCC3)cc2)c2ccccc12 [IY1207A-1] |  |  | IC50 [4, 9]: 24.3 µM
O=C(Nc1ccc(OCc2ccc(OCCN3CCCCC3)cc2F)c2ccccc12)NC1CCCC1 [IY1215C-1] | 5.36 µM |  | 
O=C(Nc1ccccc1)Nc1ccc(OCc2ccc(OCCN3CCCCC3)cc2)c2ccccc12 [IY1223B-1] | 13.2 µM |  | 
COc1ccc(NC(=O)Nc2ccc(OCc3ccc(OCCN4CCCCC4)cc3)c3ccccc23)cc1Cl [IY1225B-1] |  | 1.95 µM | 
O=C(Nc1ccc(Cl)cc1)Nc1ccc(OCc2ccc(OCCN3CCCCC3)cc2)c2ccccc12 [IY1229D-1] |  |  | IC50 ([2]; 48 h): 14.2 µM; IC50 ([3]; 48 h): 12.2 µM
O=C(Nc1ccc(F)cc1)Nc1ccc(OCc2ccc(OCCN3CCCCC3)c(Br)c2)c2ccccc12 [IY210105A-1] | 20.4 µM |  | 
COc1cc(NC(=O)Nc2ccc(OCc3ccc(OCCN4CCCCC4)cc3)c3ccccc23)ccc1F [IY210105C-1] | 1.89 µM | 4.39 µM | 
O=C(Nc1ccc(F)cc1)Nc1ccc(OCc2ccc(OCCN3CCCCC3)cc2)c2ccccc12 [IY210105D-1] | 3.8 µM | 3.8 µM | 
O=C(Nc1ccc(Cl)cc1)Nc1ccc(OCc2ccc(OCCN3CCCCC3)c(F)c2)c2ccccc12 [IY210106D-1] |  |  | IC50 ([2]; 48 h): 6.34 µM
O=C(NCc1ccc(Cl)cc1)Nc1ccc(OCc2ccc(OCCN3CCCCC3)cc2)c2ccccc12 [IY210113C-1] |  | 3.94 µM | IC50 [7]: 12.5 µM
O=C(NCc1ccc(C(F)(F)F)cc1)Nc1ccc(OCc2ccc(OCCN3CCCCC3)cc2)c2ccccc12 [IY210113D-1] |  | 3.36 µM | IC50 [7]: 13.7 µM
O=C(NCc1ccc(F)cc1F)Nc1ccc(OCc2ccc(OCCN3CCCCC3)cc2)c2ccccc12 [IY210118B-1] |  |  | IC50 [1]: 23.6 µM
CNC(=O)c1cc(Oc2ccc(NC(=O)Nc3ccc(Cl)c(C(F)(F)F)c3)cc2)ccn1 [Sorafenib, reference compound] |  | 6.17 µM | IC50 [1]: 30 µM; IC50 [7]: 17.6 µM
